The values below come from PubChem BioAssay (NCI).

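Results reflect a 48-hour exposure of cells in 96-well plates to compound at five concentrations. Definition used: TGI = concentration required for complete inhibition of growth.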

What all share (assay): NCI anticancer screen, dose series, 48 h
Assay [1] has as its system HCC-2998 colon.
In assay [2] the test system is OVCAR-3 ovarian.
Assay [3] has as its system SN12C renal.
The test system of assay [4] is MDA-MB-435.
Assay [5] relates to SK-OV-3 ovarian.
Assay [6] deals with SNB-19 CNS.
For assay [7], the system named is CCRF-CEM leukemia.
The test system of assay [8] is U251 CNS.
Assay [9] deals with RXF 393 renal.
Assay [10] deals with TK-10 renal.

As for `COc1ccc(N=C(C)C(C)=Nc2ccc(OC)cc2)cc1`, the TGI in [1] is 82.6 µM; in [2], over 100 µM; in [3], over 100 µM; in assay [4] it was over 100 µM; in assay [5], over 100 µM; in [6], over 100 µM. The TGI in [7], in assay [8], in [9] and in [10] was over 100 µM each time.

As for `C[C@@H]([C@H]1CC[C@@]2(C)[C@@H]3CC[C@@H]4C(=CC3=CC[C@]12C)CC[C@H](N(C)C)C4(C)C)N(C)C`, the TGI in [1], in assay [2], in assay [3], in assay [4], in [5] and in [6] was over 100 µM in each case. For the same molecule, the TGI in [7], in [8], in assay [9] and in [10] was over 100 µM throughout.

For `COc1ccc(-c2c(/C=N/OCC(=O)O)c3sc4ccccc4n3c2/C=N/OCC(=O)O)cc1`, the TGI in assay [1], in [2], in [3], in [4], in assay [5] and in assay [6] was over 50 µM in each case. Also, the TGI in assay [7], in assay [8], in assay [9] and in assay [10] was over 50 µM each time.

For the molecule `CC(C)=CCNc1ncnc2c1ncn2CCC(=O)O`, the TGI in assay [1], in assay [2], in assay [3], in assay [4], in [5] and in [6] was over 100 µM throughout. The TGI in assay [7], in [8], in [9] and in assay [10] was over 100 µM each time.

As to `COC(=O)c1ccc(C)cc1C1CN=NC12Cc1cccc(C)c1C2=O` (configuration not stated), the TGI was over 100 µM in assay [1]; over 100 µM in [2]; over 100 µM in [3]; 37.9 µM in assay [4]; over 100 µM in assay [5]; over 100 µM in assay [6]. The TGI in assay [7] is 92.8 µM; in assay [8], over 100 µM; in assay [9], over 100 µM; in assay [10], over 100 µM.

For `O=Cc1c2c(cc3c1CC1(C3)Cc3cc4c(c(C=O)c3C1)CCC4)CCC2`, the TGI was over 100 µM in [1]; over 100 µM in [2]; over 100 µM in assay [3]; over 100 µM in assay [4]; over 100 µM in [5]; 58.4 µM in [7]. Moreover, the TGI in [8] was 38.4 µM; in [9], over 100 µM; in [10] it was 98.8 µM.

Regarding `C=CC(C)(C)/C(=C\CO[Si](C(C)C)(C(C)C)C(C)C)C(=O)N(C)c1ccccc1I`, the TGI in assay [1] came out at 26 µM; in [2], 26.2 µM; in assay [3], 29.7 µM; in [4], 73.9 µM; in assay [5], 33.1 µM; in assay [6], 28.1 µM. Besides, the TGI in assay [7] stood at 22.6 µM; in assay [8], 25 µM; in assay [9], 24.5 µM; in assay [10], 26.2 µM.

With `CN(C)Cc1cc(/C=C/C(=O)c2ccc(Br)cc2)cc(CN(C)C)c1O`, the TGI was 27.8 µM in assay [1]; 71.4 µM in assay [2]; 32.3 µM in assay [3]; 36.8 µM in [4]; 55.1 µM in assay [5]; 48.2 µM in assay [6]. The TGI in assay [7] is 25.4 µM; in [9], 74.5 µM; in [10] it was 25.7 µM.

For the molecule `O=C(NC1=C(Cl)C(=O)c2ccccc2C1=O)C(=O)c1c(O)c2ccccc2oc1=O`, the TGI in assay [1] is 20.4 µM; in assay [2], 6.79 µM; in [3], 14.3 µM; in assay [4], 2.97 µM; in [5], 27.4 µM; in [6], 16 µM. The TGI in assay [7] was over 30.7 µM; in assay [8], 20.9 µM; in assay [9] it was 21.9 µM; in [10] it was 37.7 µM.

As for `C#CC(O)/C=C/C(O)CCCC(O)CC#CC(O)C#CCCCCC(O)/C=C/CCCC(=O)CCCCCCCCCCCCCCCC(O)C(O)C#CC(=O)O` (configuration not stated), the TGI in assay [1], in assay [3], in assay [4], in assay [5], in assay [6] and in [7] was over 25 µM throughout. For the same molecule, the TGI in assay [8], in [9] and in assay [10] was over 25 µM throughout.

On to `Oc1ccc(Nc2nc(Cl)c3[nH]cnc3n2)cc1`, for which the TGI in [1], in [2], in assay [3], in assay [4], in assay [5] and in assay [6] was over 100 µM each time. Moreover, the TGI in [7], in [8], in [9] and in assay [10] was over 100 µM each time.

Regarding `C=C1c2nc3ccccc3n2C=C(c2ccccc2)N1c1ccc(C)cc1`, the TGI in [1] was 36.7 µM; in [2] it was over 100 µM; in assay [3], over 100 µM; in [4], over 100 µM; in assay [5], over 100 µM; in assay [6], over 100 µM. Moreover, the TGI in assay [7], in [8], in [9] and in assay [10] was over 100 µM in each case.

For `CNCC(SC)c1ccc(O)c(O)c1` (configuration not stated), the TGI in assay [1] is 31.2 µM; in assay [2], 40.9 µM; in assay [3], 45.8 µM; in assay [4], over 100 µM; in [5], over 100 µM; in assay [6], over 100 µM. Also, the TGI is 7.33 µM in [7], over 100 µM in assay [8], over 100 µM in [9] and 34 µM in [10].
